Experimental data from patent US8227502B2, “Amides acting on the adenosine receptors” (Anamar AB, priority 2006, dated 2012).

Columns and labels:
adenosine A2A receptor = molecular target: T1, adenosine A2A receptor (Homo sapiens, UniProt P29274); assay: Affinity for adenosine A2A receptor ([3H]CGS21680 binding, per Varani et al.)
T1 construct: from tissue
Source text: The affinity and functionality towards the adenosine A2A receptor was essentially performed as described by Varani et al. (Varani, Pharmacological and biochemical characterization of purified A2A adenosine receptors in human platelet membranes by [^3H]CGS21680 binding, Br. J. Pharmacol. 117:1693-1701, 1996), Table 1.

[1] = system: antigen induced arthritis; assay: Antigen induced arthritis (AIA), knee joint swelling; assay type: in vivo; conditions: rat, per oral administration, FIG. 1
Source text: Antigen Induced Arthritis (AIA) in the rat is a well reproducible monoarthritis model. An intraarticular injection of the antigen methylated bovine serum albumin (mBSA) in the knee joint in sensitised animals induces an inflammatory response. The formation of pannus tissue, which invades the synovium, spreads over the articular cartilage and grows into the bone, leading to tissue erosion and remodeling.
AIA responds well to compounds used for standard clinical treatment of human arthritis. Therefore this model is appropriate for the evaluation of the effects of new compounds on joint inflammation and cartilage/bone degradation. The test compounds can be administered locally or systemically. The features of the arthritis can be followed and evaluated by measuring knee joint swelling, by functional scoring and histological analysis. Since it is a monoarthritis model, the level of inflammatory serum markers may be difficult to detect. The AIA model also serves as a source for the production of synoviocytes for in vitro culturing, in order to gain further insight in the synovial matrix composition and for drug screening purposes.
In Antigen induced arthritis—for the effect on knee diameter of Compound 1:16 after per oral administration—see FIG. 1.

T1 sequence (P29274 whole entry): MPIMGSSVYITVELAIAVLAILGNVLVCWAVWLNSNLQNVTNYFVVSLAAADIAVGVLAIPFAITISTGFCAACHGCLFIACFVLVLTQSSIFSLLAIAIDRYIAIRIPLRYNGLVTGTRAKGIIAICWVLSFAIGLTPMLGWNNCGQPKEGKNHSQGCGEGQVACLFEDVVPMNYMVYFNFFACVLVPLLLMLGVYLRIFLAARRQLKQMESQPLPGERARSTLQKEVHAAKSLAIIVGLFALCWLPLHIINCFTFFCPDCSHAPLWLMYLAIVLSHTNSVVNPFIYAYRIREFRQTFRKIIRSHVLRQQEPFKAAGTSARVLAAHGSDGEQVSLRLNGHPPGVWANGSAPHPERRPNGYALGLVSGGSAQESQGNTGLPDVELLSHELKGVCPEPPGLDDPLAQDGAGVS

Row | Compound | IC50 (adenosine A2A receptor) [nM] | Ki (adenosine A2A receptor) [nM] | swelling of the knee (knee diameter) [1]
1 | NCCC(=O)N(CCc1c[nH]c2ccccc12)C(C(=O)Nc1ccccc1)c1ccc(Br)cc1Br (centres unmarked) [Compound 1:16, 3-Amino-N-[(2,4-dibromo-phenyl)-phenylcarbamoyl-methyl]-N-[2-(1H-indol-3-yl)-ethyl]-propionamide] | 31.1 | 17.5 | reduced the swelling of the knee
2 | NCCC(=O)N(CCc1c[nH]c2ccccc12)C(C(=O)NC1CCCCC1)c1ccc(Br)cc1Br (centres unmarked) [1:04, 3-Amino-N-[cyclohexylcarbamoyl-(2,4-dibromo-phenyl)-methyl]-N-[2-(1H-indol-3-yl)-ethyl]-propionamide] | 2840 | 1600 | –
3 | NCCC(=O)N(CCc1c[nH]c2ccccc12)C(C(=O)Nc1ccccc1)c1ccccc1Br (centres unmarked) [1:13, 3-Amino-N-[(2-bromo-phenyl)-phenylcarbamoyl-methyl]-N-[2-(1H-indol-3-yl)-ethyl]-propionamide] | – | 60 | –
4 | NCCC(=O)N(CCc1c[nH]c2ccccc12)C(C(=O)NC1CCCCC1)c1ccccc1Br (centres unmarked) [1:02, 3-Amino-N-[(2-bromo-phenyl)-cyclohexylcarbamoyl-methyl]-N-[2-(1H-indol-3-yl)-ethyl]-propionamide] | – | 1000 | –
5 | NCCC(=O)N(CCc1c[nH]c2ccccc12)C(C(=O)NCc1ccccc1)c1ccc(Br)cc1Br (centres unmarked) [1:09, 3-Amino-N-[benzylcarbamoyl-(2,4-dibromo-phenyl)-methyl]-N-[2-(1H-indol-3-yl)-ethyl]-propionamide] | 5110 | 2870 | –
6 | NCCC(=O)N(CCc1c[nH]c2ccccc12)C(C(=O)Nc1ccccc1)c1ccc(Br)cc1 (centres unmarked) [1:15, 3-Amino-N-[(4-bromo-phenyl)-phenylcarbamoyl-methyl]-N-[2-(1H-indol-3-yl)-ethyl]-propionamide] | 243 | 136 | –
